In the experiment the target is T1, FLuc-C-HiBiT (Photinus pyralis, UniProt P08659).
T1 construct: firefly luciferase with C-terminal HiBiT tag, E. coli expressed
Put plainly: biochemical. To be noted: enzyme activity, 10 uM ATP; read-out: IC50 or SDR50 (mM) / FLuc E.

T1 sequence (P08659 whole entry, looked up): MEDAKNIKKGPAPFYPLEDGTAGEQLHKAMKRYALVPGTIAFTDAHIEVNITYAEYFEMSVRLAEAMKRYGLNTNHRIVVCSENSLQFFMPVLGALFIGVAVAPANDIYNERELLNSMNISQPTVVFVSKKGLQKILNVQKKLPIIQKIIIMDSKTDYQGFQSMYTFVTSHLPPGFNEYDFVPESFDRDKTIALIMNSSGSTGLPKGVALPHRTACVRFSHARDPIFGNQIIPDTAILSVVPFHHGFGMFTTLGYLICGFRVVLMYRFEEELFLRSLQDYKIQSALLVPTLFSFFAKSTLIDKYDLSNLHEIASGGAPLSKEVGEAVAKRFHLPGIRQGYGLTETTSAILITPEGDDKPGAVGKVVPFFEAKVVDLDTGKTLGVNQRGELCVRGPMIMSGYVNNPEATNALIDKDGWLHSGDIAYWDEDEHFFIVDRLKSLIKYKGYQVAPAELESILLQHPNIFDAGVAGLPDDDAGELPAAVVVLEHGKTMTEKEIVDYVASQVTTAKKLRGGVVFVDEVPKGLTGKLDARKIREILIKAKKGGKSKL

On to `COc1ccc(CNC(=O)Cn2cccc2C(=O)c2ccccc2C)cc1` [NCGC00113808-01], for which the IC50 was over 30 µM.

With `O=C(Nc1ccccc1F)c1ccc(-c2ccccc2)s1` [NCGC00114318-01], the IC50 came to 2.48 µM.

For `Cc1cccc(NC(=O)c2ccc(-c3ccccc3)s2)c1` [NCGC00114320-01], the IC50 came out at 2.79 µM.

For `Cc1ccc(NC(=O)c2ccc3snnc3c2)cc1C` [NCGC00114783-01], the IC50 came out at 8.81 µM.

Consider `C#CCn1c(/C=C/c2ccc(Cl)cc2)nc2ccccc21` [NCGC00114864-01], for which the IC50 was 0.624 µM.

Turning to `COc1ccc(-c2nc3c4cnn(-c5ccccc5F)c4ncn3n2)cc1` [NCGC00115088-01], the IC50 was determined as 0.785 µM.

Consider `COc1cccc(-c2noc(COc3ccccc3Cl)n2)c1` [NCGC00115123-01], for which the IC50 was found to be 11.1 µM.

On to `Brc1ccccc1-n1ncc2c1ncn1nc(Cc3ccccc3)nc21` [NCGC00115124-01], for which the IC50 was over 30 µM.

On to `COc1ccc(C(=O)Nc2noc3ccccc23)cc1` [NCGC00115156-01], for which the IC50 was 0.881 µM.

Regarding `COc1cccc(NC(=O)CCc2nc(-c3ccc(C(C)(C)C)cc3)no2)c1` [NCGC00115609-01], the IC50 is 7 µM.

Take `O=C(Nc1onc2c1CCCC2)c1ccccc1` [NCGC00115884-01]: the IC50 worked out at 11.1 µM.

For `Cc1ccc(C(=O)Nc2onc3c2CCCC3)cc1` [NCGC00115902-01], the IC50 was 0.989 µM.

For the compound `COc1ccc(C(=O)Nc2onc3c2CCCC3)cc1` [NCGC00115906-01], the IC50 is 1.97 µM.

Take `COc1ccccc1C(=O)Nc1onc2c1CCCC2` [NCGC00115908-01]: the IC50 came to 9.89 µM.

As for `CCOc1ccc(C(=O)Nc2onc3c2CCCC3)cc1` [NCGC00115912-01], the IC50 worked out at 1.97 µM.

In the case of `CC(C)COc1ccc(C(=O)Nc2onc3c2CCCC3)cc1` [NCGC00115916-01], the IC50 came out at 1.97 µM.

For `CC(=O)Nc1ccc(NC(=O)CCCc2nc(-c3ccc(C(C)(C)C)cc3)no2)cc1` [NCGC00116112-01], the IC50 is 4.95 µM.

On to `COc1cccc(OCc2nc3ccccc3n2Cc2ccccc2)c1` [NCGC00116123-01], for which the IC50 was over 30 µM.

For `CC(=O)c1nn(-c2ccc(OC(F)(F)F)cc2)nc1Nc1ccccc1` [NCGC00116600-01], the IC50 stood at 0.7 µM.

On to `CC(=O)c1cccc(Nc2nn(-c3ccc(OC(F)(F)F)cc3)nc2C(C)=O)c1` [NCGC00116630-01], for which the IC50 came out at 4.42 µM.

For the compound `Cc1ccc(C2=Nc3cc(Cl)ccc3NC(c3ccccc3)=N2)cc1` [NCGC00116648-01], the IC50 was over 30 µM.

Take `CCOc1ccc(-n2nc(CO)c(C(=O)NCc3ccccn3)n2)cc1` [NCGC00117131-01]: the IC50 stood at 11.1 µM.

Regarding `CCOc1ccc(-n2nc(CO)c(C(=O)NCc3cccc(OC)c3)n2)cc1` [NCGC00117153-01], the IC50 is 11.1 µM.

For `CCc1ccc(-n2nc(CO)c(C(=O)NC)n2)cc1` [NCGC00117187-01], the IC50 came out at 17.6 µM.

For `Cc1cccc(OCCn2nnc3sc4c(c3c2=O)CCCC4)c1` [NCGC00117282-01], the IC50 was found to be 12.4 µM.

Take `Cc1ccc2sc(-c3ccc(N)cc3)nc2c1` [NCGC00117377-01]: the IC50 was 0.279 µM.

As for `CCCc1nn2cc(-c3ccc(C)c(C)c3)nc2s1` [NCGC00117454-01], the IC50 was 0.624 µM.

For the compound `CCCCCc1nn2cc(-c3ccccc3)nc2s1` [NCGC00117458-01], the IC50 worked out at 0.624 µM.

Regarding `CCC(CC)c1nn2cc(-c3ccccc3)nc2s1` [NCGC00117460-01], the IC50 stood at 0.881 µM.

As to `CCOc1ccc(-c2cn3nc(CC(C)C)sc3n2)cc1` [NCGC00117462-01], the IC50 turned out to be 4.95 µM.

In the case of `COc1cccc(-c2cn3ncsc3n2)c1` [NCGC00117781-01], the IC50 is 11.1 µM.

As to `COc1ccc(OCC(=O)Nc2nc(-c3ccc(Br)cc3)ns2)cc1` [NCGC00118248-01], the IC50 is over 30 µM.

In the case of `Cc1ccc(/C=C/C(=O)N2CCC(c3nc4ccccc4o3)CC2)cc1` [NCGC00118334-01], the IC50 stood at 11.1 µM.

Consider `COC(=O)c1c(-c2cccs2)csc1NC(=O)c1ccc(Br)cc1` [NCGC00118335-01], for which the IC50 worked out at 11.1 µM.

As for `COC(=O)c1c(-c2cccs2)csc1NC(=O)c1ccc(C)cc1` [NCGC00118339-01], the IC50 came out at 15.7 µM.

With `Cc1cccc(C(=O)Nc2nc3c(s2)CCCC3)c1` [NCGC00118410-01], the IC50 is 2.48 µM.

Regarding `O=C(Nc1nc2c(s1)CCCC2)c1ccccc1F` [NCGC00118438-01], the IC50 came to 0.556 µM.

Take `COc1cccc(C(=O)Nc2ccc3nc(SCC(=O)N4CCOCC4)sc3c2)c1` [NCGC00118677-01]: the IC50 came out at 9.89 µM.

Turning to `Cc1cccc(NC(=O)c2cc(-c3ccc4c(c3)OCCO4)on2)c1` [NCGC00118828-01], the IC50 came to 0.442 µM.

In the case of `O=C(Nc1cccc(Cl)c1)c1cc(-c2ccc3c(c2)OCCO3)on1` [NCGC00118845-01], the IC50 was 0.624 µM.

Turning to `CC(=O)Nc1ccc(NC(=O)c2cc(-c3ccc4c(c3)OCCO4)on2)cc1` [NCGC00118853-01], the IC50 was 0.624 µM.

As for `O=C(Nc1cccc(Br)c1)c1cc(-c2ccc3c(c2)OCCO3)on1` [NCGC00118911-01], the IC50 worked out at 0.989 µM.

For `Cc1ccc(Cl)cc1NC(=O)c1cc(-c2ccc3c(c2)OCCO3)on1` [NCGC00118917-01], the IC50 amounted to 1.76 µM.

With `Cc1c(NC(=O)C(C)(C)C)cccc1-c1nc2ccccc2s1` [NCGC00118970-01], the IC50 was 5.56 µM.

Take `COc1ccc(OCC(=O)Nc2cccc(-c3nc4ccccc4s3)c2C)cc1` [NCGC00118972-01]: the IC50 stood at 7.85 µM.

`Cc1c(N[S+](C)(=O)[O-])cccc1-c1nc2ccccc2s1` [NCGC00118990-01]: the IC50 was determined as 9.89 µM.

As for `CC(C)(C)C(=O)Nc1ccc(-c2nc3ccccc3s2)cc1` [NCGC00118992-01], the IC50 came to 0.0197 µM.

On to `O=C(COc1ccccc1F)Nc1ccc(-c2nc3ccccc3s2)cc1` [NCGC00118994-02], for which the IC50 is over 30 µM.

For `C[S+](=O)([O-])Nc1ccc(-c2nc3ccccc3s2)cc1` [NCGC00118996-01], the IC50 came to 2.21 µM.

For `Cc1ccc(C(=O)Nc2ccc3oc(-c4ccccc4C)nc3c2)cc1` [NCGC00118998-01], the IC50 was over 30 µM.

On to `COc1ccc(-c2nc3ccc(N[S+](C)(=O)[O-])cc3o2)cc1` [NCGC00119094-01], for which the IC50 worked out at 5.56 µM.

Take `O=C(COc1ccccc1[N+](=O)[O-])Nc1ccc(-c2nc3ccccc3s2)cc1` [NCGC00119127-01]: the IC50 is over 30 µM.

As for `CC(C)Oc1ccc(C(=O)Nc2ccc(-c3nc4ccccc4s3)cc2)cc1` [NCGC00119129-01], the IC50 was over 30 µM.

For `COc1ccccc1OC(C)C(=O)Nc1ccc(-c2nc3ccccc3s2)cc1` (centres unmarked) [NCGC00119131-01], the IC50 is over 30 µM.

As for `CC(Oc1ccccc1F)C(=O)Nc1ccc(-c2nc3ccccc3s2)cc1` (centres unmarked) [NCGC00119149-01], the IC50 was 8.81 µM.

As to `Cc1cc(C)cc(OCC(=O)Nc2ccc(-c3nc4ccccc4s3)cc2)c1` [NCGC00119151-01], the IC50 is over 30 µM.

For `Cc1ccc(OCC(=O)Nc2cccc(-c3nc4ccccc4s3)c2)cc1` [NCGC00119153-02], the IC50 is 9.89 µM.

On to `O=C(COc1ccccc1[N+](=O)[O-])Nc1cccc(-c2nc3ccccc3s2)c1` [NCGC00119155-01], for which the IC50 is over 30 µM.

`COc1ccccc1OC(C)C(=O)Nc1cccc(-c2nc3ccccc3s2)c1` (centres unmarked) [NCGC00119157-01]: the IC50 turned out to be 8.81 µM.

For the origin of these results see PMC12064818, “A general assay platform to study protein pharmacology using ligand-dependent structural dynamics” (Nature Communications, 2025).
